According to US20050004126A1 (priority 2001, published 2005):
Several values for one entry are separate records, joined by “and”; a condition that tells them apart may be missing. Equal values may be shown once. Where a name gives a salt, the structure may show the parent alone. Read-outs that look alike come from different tables or passages of the source.

How the values were obtained:
[1] = biological target: MMP-13CD (catalytic domain of collagenase 3) (Homo sapiens, UniProt P45452); test: Thiopeptolide hydrolysis assay, MMP-13;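 further: inhibition of enzymatic thiopeptolide substrate cleavage (100 µM) in pH 6.0 MES buffer with CaCl2 and DTNB, comparing hydrolysis with versus without inhibitor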
Description: (§1) They measure the amount by which a test compound reduces the hydrolysis of a thiopeptolide substrate caused by a matrix metalloproteinase enzyme.
Thiopeptolide substrates show virtually no decomposition or hydrolysis in the absence of a matrix metalloproteinase enzyme. A typical thiopeptolide substrate commonly utilized for assays is Ac-Pro-Leu-Gly-thioester-Leu-Leu-Gly-OEt. A 100 μL assay mixture will contain 50 mM of 2-morpholinoethane sulfonic acid monohydrate (MES, pH 6.0) 10 mM CaCl2, 100 μM thiopeptolide substrate, and 1 mM 5,5′-dithio-bis-(2-nitro-benzoic acid) (DTNB). […] Assays are carried out with and without matrix metalloproteinase inhibitor compounds, and the amount of hydrolysis is compared for a determination of inhibitory activity of the test compounds.

[2] = biological target: T1, MMP-1FL (full-length interstitial collagenase) (Homo sapiens, UniProt P03956); test: Thiopeptolide hydrolysis assay, MMP-1; type: biochemical; settings: read-out: MMP01 IC50
T1 sequence (P03956 100-469): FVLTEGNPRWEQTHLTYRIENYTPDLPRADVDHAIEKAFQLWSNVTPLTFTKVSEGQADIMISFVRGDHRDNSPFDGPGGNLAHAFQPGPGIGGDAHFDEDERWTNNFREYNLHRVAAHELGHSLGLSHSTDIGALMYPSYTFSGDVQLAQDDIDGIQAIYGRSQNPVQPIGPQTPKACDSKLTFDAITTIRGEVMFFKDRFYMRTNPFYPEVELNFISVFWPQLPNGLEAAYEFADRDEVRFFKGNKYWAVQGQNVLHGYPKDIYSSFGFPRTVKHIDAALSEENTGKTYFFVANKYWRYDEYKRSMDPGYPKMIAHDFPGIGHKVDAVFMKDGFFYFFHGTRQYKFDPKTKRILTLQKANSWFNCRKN
Description: as §1
Thiopeptolide substrates show virtually no decomposition or hydrolysis in the absence of a matrix metalloproteinase enzyme. A typical thiopeptolide substrate commonly utilized for assays is Ac-Pro-Leu-Gly-thioester-Leu-Leu-Gly-OEt. A 100 μL assay mixture will contain 50 mM of 2-morpholinoethane sulfonic acid monohydrate (MES, pH 6.0) 10 mM CaCl2, 100 μM thiopeptolide substrate, and 1 mM 5,5′-dithio-bis-(2-nitro-benzoic acid) (DTNB). […] The change in absorbance at 405 nm is monitored on a Thermo Max microplate reader (moleucular Devices, Menlo Park, Calif.) at room temperature (22° C.). […] Assays are carried out with and without matrix metalloproteinase inhibitor compounds, and the amount of hydrolysis is compared for a determination of inhibitory activity of the test compounds.

[3] = biological target: MMP-3CD (catalytic domain of stromelysin) (Homo sapiens, UniProt P08254); test: Thiopeptolide hydrolysis assay, MMP-3; type: biochemical; settings: read-out: MMP03 IC50;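 further: inhibition of thiopeptolide substrate (100 µM) cleavage by the MMP-3 catalytic domain, detected with DTNB at pH 6.0 with CaCl2, hydrolysis compared against runs lacking inhibitor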
MMP-3CD (catalytic domain of stromelysin), sequence (P08254 100-272 limits assumed): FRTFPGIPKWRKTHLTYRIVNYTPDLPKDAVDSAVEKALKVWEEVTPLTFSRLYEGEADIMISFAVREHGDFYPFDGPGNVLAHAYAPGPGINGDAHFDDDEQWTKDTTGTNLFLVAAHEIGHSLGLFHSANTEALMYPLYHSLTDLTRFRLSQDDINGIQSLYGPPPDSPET

Compound	IC50 ([1]; MMP13 IC50 (μM), Table 1b) [µM]	IC50 ([2]; Table 1b) [µM]	IC50 ([3]; Table 1b) [µM]	IC50 ([2]; Table II) [µM]	IC50 ([3]; Table II)	IC50 ([1]; MMP13 IC50 (nM), Table II)	IC50 ([1]; IC50 μM, Table VII, MMP-13) [µM]
COC(=O)c1ccc(Cn2c(=O)c(C)c3sc(C(=O)NCc4ccc(F)cc4)cn3c2=O)cc1Cl	0.24	> 30	> 30	–	–	–	–
COc1ccc(C(=O)OCc2ccc3nsnc3c2)cc1C(=O)OCc1ccc2nsnc2c1	–	–	–	30	–	–	–
COC(=O)c1ccc(Cn2c(=O)c(C)c3sc(C(=O)NCc4cccc(F)c4)cn3c2=O)cc1	0.0715	> 30	19	–	–	–	–
COC(=O)c1ccc(Cn2c(=O)c(C)c3sc(C(=O)NCc4ccc(F)cc4)cn3c2=O)cc1OC	0.099	> 30	–	–	–	–	–
Cc1c(=O)n(Cc2ccc(C(=O)OCCN(C)C)cc2)c(=O)n2cc(C(=O)NCc3ccc(F)cc3)sc12	0.094	> 100	> 30	–	–	–	–
COC(=O)c1ccc(Cn2c(=O)c(C)c3sc(C(=O)NCc4ccc(F)cc4)cn3c2=O)cc1	0.018	> 100	17	–	–	–	–
COC(=O)c1ccc(Cn2c(=O)c(C)c3sc(C(=O)NCc4ccc(F)cc4)cn3c2=O)cc1C	0.018	> 100	18	–	–	–	–
COC(=O)c1ccc(Cn2c(=O)c(C)c3sc(C(=O)NCc4ccc(OC)cc4)cn3c2=O)cc1	0.0106	> 100	65	–	–	–	–
O=C(NCc1ccccc1)c1cn2c(=O)n(C(=O)c3ccccc3)c(=O)cc2s1	6.7	> 30	> 30	–	–	–	–
O=C(OCc1ccccc1)C1C[S+]([O-])c2cc(=O)n(Cc3ccccc3)c(=O)n21 (stereo not shown)	0.072	> 100	23	–	–	–	–
O=C(NCc1ccncc1)C1Cn2c(cc(=O)n(Cc3ccccc3)c2=O)S1 (stereo not shown)	0.59	> 100	> 100	–	–	–	–
COc1ccc(CNC(=O)c2cn3c(=O)n(Cc4ccccc4)c(=O)c(C=O)c3s2)cc1	0.0224	> 100	11	–	–	–	–
Cc1c(=O)n(Cc2ccccc2)c(=O)n2cc(C(=O)NCc3ccccc3)sc12	0.094	> 100	51	–	–	–	–
COc1cccc(CNC(=O)c2cn3c(=O)n(Cc4ccccc4)c(=O)c(C)c3s2)c1	0.006	> 30	22	–	–	–	–
Cc1c(=O)n(Cc2ccccc2)c(=O)n2cc(C(=O)NCc3ccc(Cl)c(Cl)c3)sc12	0.265	> 30	20	–	–	–	–
COc1ccc(CNC(=O)c2cn3c(=O)n(Cc4ccccc4)c(=O)c(C)c3s2)cn1	0.0175	> 30	> 10	–	–	–	–
Cc1c(=O)n(Cc2ccccc2)c(=O)n2cc(C(=O)NCc3ccc(F)cc3)sc12	0.0245	> 30	> 100	–	–	–	–
Cc1c(=O)n(Cc2ccccc2)c(=O)n2cc(C(=O)NCc3ccc4nsnc4c3)sc12	0.0046	> 30	–	–	–	–	–
Cc1cccc(CNC(=O)c2cn3c(=O)n(Cc4ccccc4)c(=O)c(C)c3s2)c1	0.025	> 100	19	–	–	–	–
COc1ccc(CNC(=O)c2cn3c(=O)n(Cc4ccccc4)c(=O)c(C)c3s2)cc1F	0.025	> 100	12	–	–	–	–
Cc1ccc(CNC(=O)c2cn3c(=O)n(Cc4ccccc4)c(=O)c(C)c3s2)cc1	0.225	> 30	19	–	–	–	–
Cc1c(=O)n(Cc2ccccc2)c(=O)n2cc(C(=O)NCc3ccc(F)c(F)c3)sc12	0.029	> 100	> 30	–	–	–	–
COc1ccc(CNC(=O)c2cn3c(=O)n(Cc4ccccc4)c(=O)c(C)c3s2)cc1	0.0217	> 30	16	–	–	–	–
CC#CCn1c(=O)c(C)c2sc(C(=O)NCc3ccc(F)cc3)cn2c1=O	0.315	> 100	> 30	–	–	–	–

Compound	IC50 ([1]; MMP13 IC50 (μM), Table 1b) [µM]	IC50 ([2]; Table 1b) [µM]	IC50 ([3]; Table 1b) [µM]	IC50 ([2]; Table II) [µM]	IC50 ([3]; Table II)	IC50 ([1]; MMP13 IC50 (nM), Table II)	IC50 ([1]; IC50 μM, Table VII, MMP-13) [µM]
O=C(NCc1ccccc1)c1cn2c(=O)n(Cc3ccc(Cl)c(Cl)c3)c(=O)cc2s1	0.293	> 30	> 30	–	–	–	–
Cc1c(=O)n(Cc2ccc(Cl)cc2)c(=O)n2cc(C(=O)NCc3ccncc3)sc12	0.053	> 30	> 30	–	–	–	–
O=C(NCc1ccc(Cl)c(Cl)c1)c1cn2c(=O)n(Cc3ccc(Cl)cc3)c(=O)cc2s1	4.3	> 30	> 100	–	–	–	–
O=C(NCc1ccccc1)c1cn2c(=O)n(Cc3ccc(Cl)cc3)c(=O)cc2s1	0.415	> 30	43	–	–	–	–
Cc1c(=O)n(Cc2ccc(C#N)cc2)c(=O)n2cc(C(=O)NCc3ccc(F)cc3)sc12	0.023	> 100	25	–	–	–	–
Cc1c(=O)n(Cc2ccc3cc(F)ccc3n2)c(=O)n2cc(C(=O)NCc3ccc(F)cc3)sc12	0.086	> 30	18	–	–	–	–
Cc1c(=O)n(Cc2ccccc2)c(=O)n2cc(C(=O)NCc3cccnc3)sc12	0.225	> 100	> 30	–	–	–	–
Cc1c(=O)n(Cc2ccc3oc(=O)ccc3c2)c(=O)n2cc(C(=O)NCc3ccc(F)cc3)sc12	0.012	> 30	> 30	–	–	–	–
Cc1c(=O)n(Cc2ccc(-c3nn[nH]n3)cc2)c(=O)n2cc(C(=O)NCc3ccc(F)cc3)sc12	0.0009	> 100	16	–	–	–	–
Cc1nc(Cn2c(=O)c(C)c3sc(C(=O)NCc4ccc(F)cc4)cn3c2=O)cs1	0.77	> 100	> 30	–	–	–	–
Cc1c(=O)n(Cc2ccc(C(=O)N3CCOCC3)cc2)c(=O)n2cc(C(=O)NCc3ccc(F)cc3)sc12	0.011	> 30	> 30	–	–	–	–
O=C(OCc1ccc2nsnc2c1)c1cccc(C(=O)OCc2ccc3nsnc3c2)c1	–	–	–	> 100	> 30 µM	–	–
O=C(O)c1ccc(COC(=O)c2cccc(C(=O)NCc3ccc4c(c3)OCO4)c2)cc1	–	–	–	> 100	–	0.033 µM	–
CC(C)Oc1ccc(C(=O)NCc2ccc3c(c2)OCO3)cc1C(=O)NCc1ccc2c(c1)OCO2	–	–	–	71	–	3.75 µM	–
COC(=O)Nc1cc(Cn2c(=O)c(C)c3sc(C(=O)NCc4ccc(F)cc4)cn3c2=O)on1	0.205	> 30	> 30	–	–	–	–
COc1ccc(CNC(=O)c2ccc(OC)c(C(=O)NCc3ccc(OC)cc3)c2)cc1 [4-Methoxy-N,N′-bis-(4-methoxybenzyl)-isophthalamide] [listing 1 of 2 here]	–	–	–	–	82 µM	0.25 µM	–
COc1ccc(CNC(=O)c2ccc(OC)c(C(=O)NCc3ccc(OC)cc3)c2)cc1 [4-Methoxy-N,N′-bis-(4-methoxybenzyl)-isophthalamide] [listing 2 of 2 here]	–	–	–	> 100	–	–	–
O=C(Nc1cccc(CO)c1)c1cccc(C(=O)Nc2cccc(CO)c2)c1 [N,N′-Bis-(3-hydroxymethyl-phenyl)-isophthalamide]	–	–	–	> 100	–	7.8 µM	–
Cc1c(=O)n(Cc2ccc(C(=O)O)cc2)c(=O)n2cc(C(=O)NCc3ccc(F)cc3)sc12 [Sodium Salt]	0.002	–	55.5	–	–	–	–
O=C(NCc1ccc2c(c1)OCO2)c1cccc(C(=O)NCc2ccc3c(c2)OCO3)c1 [Synthesis Example 11, N,N-Bis-1,3-benzodioxol-5-ylmethyl-isophthalamide]	–	–	–	–	69 µM and 81 µM	0.33 µM and 0.683 µM	–
Cn1c(=O)n(Cc2ccc(C(=O)O)cc2)c(=O)c2cc(C#Cc3ccccc3)ccc21 [Synthesis Example 75, 4-(1-Methyl-2,4-dioxo-6-(2-phenylethynyl)-1,4-dihydro-2H-quinazolin-3-ylmethyl)-benzoic acid]	–	–	–	–	–	–	1.34
COc1ccc(CNC(=O)c2cn3c(=O)n(Cc4ccccc4)c(=O)c(C)c3s2)cn1 [hydrochloride]	0.0208	–	20.5	–	–	–	–
Cc1c(=O)n(Cc2ccccc2)c(=O)n2cc(C(=O)NCc3cccnc3)sc12 [hydrochloride]	0.26	> 30	–	–	–	–	–
